This is an account of results in patent US20240336574A1 (LATIGO BIOTHERAPEUTICS, INC., priority 2021, published 2024).

The target in the experiment is T1, recombinant human NaV1.8 stably transfected HEK cells (Homo sapiens, UniProt Q9Y5Y9).
T1 construct: expressed in transfected cells; host or cells: HEK cells, stably transfected
The experiment is described as follows: Compound profiling on NaV1.8, human NaV1.8 cell line, SyncroPatch384PE automated patch clamp assay (Example 115, third set of compounds, Table 27). The experiment is classed as cell-based. The conditions noted are these: human NaV1.8 HEK cells, Table 27 (third set of compounds). As to the method:
Compound Profiling on NaV1.8 Human NaV1.8 Cell Line SyncroPatch384PE Assay
Compounds were tested on recombinant human NaV1.8 stably transfected HEK cells using the SyncroPatch384PE system, an automated patch clamp device. Cells were cultured at 37° C./5% CO2 in DMEM medium supplemented with GlutaMAX I, NEAA 1%, FBS 10% and seeded in T175 flasks. Cells were cultured at 30° C. one day prior to recording sodium currents. On the day of the recordings, cells were detached with 0.05% Trypsin-EDTA, resuspended in serum free DMEM medium and placed into the SyncroPatch384PE 6° C. pre-cooled cell hotel and shaken at 200 rpm. Intracellular solution (IC) contained, in mM: 10, CsCl; 110, CsF; 20, EGTA; 10, HEPES. Extracellular solution (EC) contained, in mM: 140, NaCl; 4, KCl; 5, Glucose; 10, HEPES; 2, CaCl2; 1, MgCl2. Washing solution contained, in mM: 40, NMDG; 100, NaCl; 4, KCl; 10, Glucose; 10, HEPES; 5, CaCl2; 1, MgCl2.
Compounds were tested in quadruplicates in 0.1% DMSO and 0.030% Pluronic Acid. Compounds were diluted 1:3.33 in EC solution to create a 10-point concentration response curve, spanning a final concentration range from 10-0.0002 μM in the assay plate. Compounds with low nM potency were retested using a lower concentration range (1-0.00002 μM). Each plate contained tetracaine and another tool compound as positive controls. Up to 7 compounds were tested on one plate. 150 μM tetracaine and 0.1% DMSO were used as high and low controls, respectively.
Whole cell patch clamp recordings were conducted according to Nanion's standard procedure for SyncroPatch384PE®. Cells were held at a holding potential of −120 mV. A depolarization step to 10 mV for 30 ms was applied (P1 measurement), followed by a hyperpolarization step to −100 mV for 100 ms. An inactivation step at −40 mV for 10 sec was applied before stepping to −100 mV for 20 ms, followed by a step to 10 mV for 30 ms (P2 measurement) and then back to −100 mV for 30 ms. Sweep interval was 15 sec with a sampling rate of 10 kHz. Following establishment of the whole-cell configuration in EC, two washing steps with reference buffer were performed to stabilize the baseline. Compounds were then applied by the SynchroPatch into each well and the current was recorded for five minutes in EC, followed by application of tetracaine to achieve full block at the end of the experiment. The potency of the compounds was assessed on two read-outs, resting state block (P1 measurement) or inactivated state block (P2 measurement) to obtain IC50 values. Values were normalized to high (tetracaine) and low (DMSO) controls.
Background: Patch clamp records ionic current or voltage across a cell membrane.

Where [1] appears, read: inactivated state block (P2 measurement), read-out: P2 IC50.
Where [2] appears, read: resting state block (P1 measurement), read-out: P1 IC50.

Where two headings read alike, the source gives them in different places.

T1 sequence (Q9Y5Y9 whole entry): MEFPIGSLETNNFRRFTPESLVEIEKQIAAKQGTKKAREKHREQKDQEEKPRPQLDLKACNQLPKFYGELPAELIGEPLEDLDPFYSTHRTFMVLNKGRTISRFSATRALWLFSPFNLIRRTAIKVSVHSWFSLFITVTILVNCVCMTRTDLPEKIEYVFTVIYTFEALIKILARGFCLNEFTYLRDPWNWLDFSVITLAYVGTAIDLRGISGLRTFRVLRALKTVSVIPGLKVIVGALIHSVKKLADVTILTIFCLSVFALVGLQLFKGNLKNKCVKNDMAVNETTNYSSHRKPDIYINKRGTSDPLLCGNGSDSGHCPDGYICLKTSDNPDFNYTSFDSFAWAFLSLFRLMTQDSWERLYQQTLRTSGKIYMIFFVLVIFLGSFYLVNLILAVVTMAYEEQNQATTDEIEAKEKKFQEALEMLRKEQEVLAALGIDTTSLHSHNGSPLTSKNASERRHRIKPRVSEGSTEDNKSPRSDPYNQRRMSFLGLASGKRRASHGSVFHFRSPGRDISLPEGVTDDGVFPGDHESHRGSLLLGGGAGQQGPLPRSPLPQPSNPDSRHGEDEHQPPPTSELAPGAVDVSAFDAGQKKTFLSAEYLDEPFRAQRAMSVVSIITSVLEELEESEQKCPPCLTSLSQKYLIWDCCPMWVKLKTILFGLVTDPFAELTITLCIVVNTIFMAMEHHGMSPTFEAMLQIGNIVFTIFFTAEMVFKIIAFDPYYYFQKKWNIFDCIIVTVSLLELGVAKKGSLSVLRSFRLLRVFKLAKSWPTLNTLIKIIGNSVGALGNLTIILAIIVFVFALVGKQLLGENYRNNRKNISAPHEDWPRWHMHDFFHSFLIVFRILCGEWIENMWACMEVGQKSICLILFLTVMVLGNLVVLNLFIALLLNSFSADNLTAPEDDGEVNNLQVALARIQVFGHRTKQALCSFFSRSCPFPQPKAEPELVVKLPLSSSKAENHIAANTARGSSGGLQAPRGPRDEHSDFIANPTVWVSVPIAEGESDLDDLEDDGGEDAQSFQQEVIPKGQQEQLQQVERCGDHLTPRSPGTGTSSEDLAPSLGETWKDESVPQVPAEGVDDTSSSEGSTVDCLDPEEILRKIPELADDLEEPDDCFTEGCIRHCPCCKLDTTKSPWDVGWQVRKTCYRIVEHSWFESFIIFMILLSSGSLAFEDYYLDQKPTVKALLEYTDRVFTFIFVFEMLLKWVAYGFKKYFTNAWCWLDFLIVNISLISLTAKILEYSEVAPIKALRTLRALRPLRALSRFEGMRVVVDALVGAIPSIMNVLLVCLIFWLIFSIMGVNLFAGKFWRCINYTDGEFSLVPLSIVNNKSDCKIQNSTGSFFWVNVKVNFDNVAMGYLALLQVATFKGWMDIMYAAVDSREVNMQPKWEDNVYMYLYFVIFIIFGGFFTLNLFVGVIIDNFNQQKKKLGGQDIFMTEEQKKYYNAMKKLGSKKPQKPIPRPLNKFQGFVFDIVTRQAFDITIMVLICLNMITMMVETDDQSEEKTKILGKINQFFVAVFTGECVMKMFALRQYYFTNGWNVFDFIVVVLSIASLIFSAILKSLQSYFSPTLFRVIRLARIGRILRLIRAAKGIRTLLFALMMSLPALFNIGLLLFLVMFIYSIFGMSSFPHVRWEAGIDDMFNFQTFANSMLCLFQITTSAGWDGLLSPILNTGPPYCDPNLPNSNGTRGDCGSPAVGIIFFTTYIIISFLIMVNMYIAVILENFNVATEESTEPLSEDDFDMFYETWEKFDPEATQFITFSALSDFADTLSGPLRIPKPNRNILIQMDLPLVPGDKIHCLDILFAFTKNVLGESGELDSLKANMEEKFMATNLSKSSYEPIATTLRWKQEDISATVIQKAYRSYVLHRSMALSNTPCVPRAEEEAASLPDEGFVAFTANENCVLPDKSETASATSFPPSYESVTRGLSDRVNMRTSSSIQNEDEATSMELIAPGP

As for `COc1cc(F)ccc1Oc1nnc(C(F)(F)F)cc1C(=O)Nc1cccc(-n2ncnc2C)c1` [Compound 36], the half-inhibitory concentration (IC50) lay in the range of 501 to 1000 nM under setting [1] and 201 to 500 nM under setting [2].

Regarding `Cc1cc(OC(F)(F)F)ccc1Oc1nnc(C(F)(F)F)cc1C(=O)Nc1ccc(C(N)=O)cc1` [Compound 37], the IC50 reads like this: under setting [1], at most 200 nM; under setting [2], at most 200 nM.

Turning to `COc1cc(F)ccc1Oc1nnc(C(F)(F)F)cc1C(=O)Nc1cccc(-c2nncn2C)c1` [Compound 38], the IC50 reads like this: under setting [1], 1000 to 5000 nM; under setting [2], 1000 to 5000 nM.

Take `COc1cc(F)ccc1Oc1nnc(C(F)(F)F)cc1C(=O)Nc1cccc(S(N)(=O)=O)c1` [Compound 39]: the IC50 was at most 200 nM under setting [1] and at most 200 nM under setting [2].

In the case of `Cc1cc(F)ccc1Oc1nnc(C(F)(F)F)cc1C(=O)Nc1ccc(S(C)(=O)=O)cc1` [Compound 40], the 50% inhibitory concentration (IC50) under setting [1] is over 5000 nM and the IC50 under setting [2] lay in the range of 1000 to 5000 nM.

As to `Cc1cc(F)ccc1Oc1nnc(C(F)(F)F)cc1C(=O)Nc1ccc(=O)[nH]c1` [Compound 41], the IC50 is over 5000 nM under setting [1] and 1000 to 5000 nM under setting [2].

With `Cc1cc(C(F)(F)F)ccc1Oc1nnc(C(F)(F)F)cc1C(=O)Nc1cccc(S(C)(=O)=O)c1` [Compound 42], the IC50 runs as follows: under setting [1], at most 200 nM; under setting [2], at most 200 nM.

In the case of `COc1cc(F)ccc1Oc1nnc(C(F)(F)F)cc1C(=O)Nc1ccc2c(c1)S(=O)(=O)NC2=O` [Compound 43], the IC50 runs as follows: under setting [1], 1000 to 5000 nM; under setting [2], 501 to 1000 nM.

For `CS(=O)(=O)c1cccc(NC(=O)c2cc(C(F)(F)F)nnc2Oc2cc(OC(F)(F)F)ccc2F)c1` [Compound 44], the IC50 is, setting by setting: under setting [1], 501 to 1000 nM; under setting [2], 201 to 500 nM.

As for `COc1cc(F)ccc1Oc1nnc(C(F)(F)F)cc1C(=O)Nc1cccc(S2(=O)=NCCC2)c1` (centres unmarked) [Compound 45], the IC50 under setting [1] was in the range of 201 to 500 nM and the IC50 under setting [2] fell in the range of 201 to 500 nM.

Turning to `COC(=O)c1cncc(NC(=O)c2cc(C(F)(F)F)nnc2Oc2ccc(F)cc2OC)n1` [Compound 46], the IC50 is over 5000 nM under setting [1] and over 5000 nM under setting [2].

For `Cc1cc(OC(F)(F)F)ccc1Oc1nnc(C(F)(F)F)cc1C(=O)Nc1cccc(S(N)(=O)=O)c1` [Compound 47], the IC50 was at most 200 nM under setting [1] and at most 200 nM under setting [2].

As to `Cc1cc(F)ccc1Oc1nnc(C(F)(F)F)cc1C(=O)Nc1ccc(S(N)(=O)=O)cc1` [Compound 48], the IC50 under setting [1] was 1000 to 5000 nM and the IC50 under setting [2] was 501 to 1000 nM.

For `COc1cc(F)ccc1Oc1nnc(C(F)(F)F)cc1C(=O)Nc1cncc(S(N)(=O)=O)c1` [Compound 49], the IC50 runs as follows: under setting [1], at most 200 nM; under setting [2], at most 200 nM.

On to `COc1cc(F)ccc1Oc1nnc(C(F)(F)F)cc1C(=O)Nc1ccnc(S(N)(=O)=O)c1` [Compound 50], for which the IC50 reads like this: under setting [1], at most 200 nM; under setting [2], at most 200 nM.

In the case of `Cc1cc(F)ccc1Oc1nnc(C(F)(F)F)cc1C(=O)Nc1cccc(S(N)(=O)=O)c1` [Compound 51], the IC50 is at most 200 nM under setting [1] and at most 200 nM under setting [2].

For the compound `CS(=O)(=O)c1cccc(NC(=O)c2cc(C(F)(F)F)nnc2Oc2cccc(OC(F)(F)F)c2)c1` [Compound 52], the IC50 was over 5000 nM under setting [1] and over 5000 nM under setting [2].

In the case of `COc1ccc(Oc2nnc(C(F)(F)F)cc2C(=O)Nc2cccc(S(C)(=O)=O)c2)c(C)c1` [Compound 53], the IC50 was at most 200 nM under setting [1] and at most 200 nM under setting [2].

For the compound `COc1cc(F)ccc1Oc1nnc(C(F)(F)F)cc1C(=O)Nc1cccc(-n2cnnc2C)c1` [Compound 54], the IC50 runs as follows: under setting [1], 1000 to 5000 nM; under setting [2], 1000 to 5000 nM.

Take `COc1cc(F)ccc1Oc1nnc(C(F)(F)F)cc1C(=O)Nc1cnnc(C#N)c1` [Compound 55]: the IC50 is, setting by setting: under setting [1], 1000 to 5000 nM; under setting [2], 1000 to 5000 nM.

As for `COc1cc(F)ccc1Oc1nnc(C(F)(F)F)cc1C(=O)Nc1cc(C#N)cnn1` [Compound 56], the IC50 reads like this: under setting [1], over 5000 nM; under setting [2], over 5000 nM.

Take `COc1cc(F)ccc1Oc1nnc(C(F)(F)F)cc1C(=O)Nc1cccc(N2CCOC2=O)c1` [Compound 57]: the IC50 under setting [1] is over 5000 nM and the IC50 under setting [2] was over 5000 nM.

On to `Cc1cc(F)ccc1Oc1nnc(C(F)(F)F)cc1C(=O)Nc1ccnnc1` [Compound 59, 3-(4-Fluoro-2-methyl-phenoxy)-N-pyridazin-4-yl-6-(trifluoromethyl)pyridazine-4-carboxamide], for which the IC50 was 201 to 500 nM under setting [1] and 501 to 1000 nM under setting [2].

With `O=C(Nc1ccc[n+]([O-])c1)c1cc(C(F)(F)F)nnc1Oc1ccc(F)cc1F` [Compound 60, 3-(3-(2,4-Difluorophenoxy)-6-(trifluoromethyl)pyridazine-4-carboxamido) pyridine 1-oxide], the IC50 was in the range of 1000 to 5000 nM under setting [1] and 1000 to 5000 nM under setting [2].

Consider `Cc1cc(F)ccc1Oc1nnc(C(F)(F)F)cc1C(=O)Nc1ccc[n+]([O-])c1` [Compound 61], for which the half-maximal inhibitory concentration (IC50) was over 5000 nM under setting [1] and over 5000 nM under setting [2].

Turning to `O=C(Nc1ccc[n+]([O-])c1)c1cc(C(F)(F)F)nnc1Oc1ccc(F)cc1Cl` [Compound 62], the IC50 under setting [1] is over 5000 nM and the half-inhibitory concentration (IC50) under setting [2] is over 5000 nM.

Consider `O=C(Nc1ccnnc1)c1cc(C(F)(F)F)nnc1Oc1ccc(F)cc1Cl` [Compound 63], for which the IC50 was in the range of 501 to 1000 nM under setting [1] and 201 to 500 nM under setting [2].

For the compound `CS(=O)(=O)c1cccc(NC(=O)c2cc(C(F)(F)F)nnc2Oc2ccc(F)cc2Cl)c1` [Compound 64], the IC50 by setting is: under setting [1], at most 200 nM; under setting [2], at most 200 nM.

On to `CS(=O)(=O)c1cc(NC(=O)c2cc(C(F)(F)F)nnc2Oc2ccc(F)cc2Cl)ccn1` [Compound 65], for which the IC50 fell in the range of 501 to 1000 nM under setting [1] and 501 to 1000 nM under setting [2].

As for `CS(=O)(=O)c1cncc(NC(=O)c2cc(C(F)(F)F)nnc2Oc2ccc(F)cc2Cl)c1` [Compound 66], the IC50 under setting [1] was 1000 to 5000 nM and the IC50 under setting [2] was over 5000 nM.

For the compound `COc1cc(NC(=O)c2cc(C(F)(F)F)nnc2Oc2ccc(F)cc2Cl)ccn1` [Compound 67], the IC50 under setting [1] is over 5000 nM and the IC50 under setting [2] is over 5000 nM.

On to `CS(=O)(=O)c1cccc(NC(=O)c2cc(C(F)(F)F)nnc2Oc2ccc(F)cc2Cl)n1` [Compound 68], for which the IC50 was over 5000 nM under setting [1] and over 5000 nM under setting [2].

As for `O=C1NCc2ccc(NC(=O)c3cc(C(F)(F)F)nnc3Oc3ccc(F)cc3Cl)cc21` [Compound 69], the IC50 was over 5000 nM under setting [1] and over 5000 nM under setting [2].

On to `Cc1ccc(F)cc1Oc1nnc(C(F)(F)F)cc1C(=O)Nc1cccc(S(C)(=O)=O)c1` [Compound 70], for which the IC50 reads like this: under setting [1], 501 to 1000 nM; under setting [2], 501 to 1000 nM.

Regarding `Cc1ccc(F)cc1Oc1nnc(C(F)(F)F)cc1C(=O)Nc1cc(S(C)(=O)=O)ccc1F` [Compound 71], the IC50 was over 5000 nM under setting [1] and over 5000 nM under setting [2].

With `CS(=O)(=O)c1ccc(F)c(NC(=O)c2cc(C(F)(F)F)nnc2Oc2ccc(F)cc2Cl)c1` [Compound 72], the IC50 reads like this: under setting [1], at most 200 nM; under setting [2], at most 200 nM.

As for `CS(=O)(=O)c1cccc(NC(=O)c2cc(C(F)(F)F)nnc2Oc2cc(F)ccc2Cl)c1` [Compound 73], the IC50 was in the range of 201 to 500 nM under setting [1] and 201 to 500 nM under setting [2].

Consider `CS(=O)(=O)c1ccc(F)c(NC(=O)c2cc(C(F)(F)F)nnc2Oc2cc(F)ccc2Cl)c1` [Compound 74], for which the IC50 is 501 to 1000 nM under setting [1] and at most 200 nM under setting [2].

Turning to `COc1cc(C#N)ccc1Oc1nnc(C(F)(F)F)cc1C(=O)Nc1cccc(S(C)(=O)=O)c1` [Compound 75], the IC50 by setting is: under setting [1], at most 200 nM; under setting [2], at most 200 nM.

Regarding `COc1cc(C#N)ccc1Oc1nnc(C(F)(F)F)cc1C(=O)Nc1cccc(C(N)=O)c1` [Compound 76], the IC50 is at most 200 nM under setting [1] and at most 200 nM under setting [2].

For `COc1cc(C#N)ccc1Oc1nnc(C(F)(F)F)cc1C(=O)Nc1cc(S(C)(=O)=O)ccc1F` [Compound 77], the IC50 under setting [1] lay within 201 to 500 nM and the IC50 under setting [2] fell in the range of 201 to 500 nM.

Turning to `Cc1cc(C#N)ccc1Oc1nnc(C(F)(F)F)cc1C(=O)Nc1cccc(S(C)(=O)=O)c1` [Compound 78], the 50% inhibitory concentration (IC50) by setting is: under setting [1], over 5000 nM; under setting [2], over 5000 nM.

For `Cc1cc(C#N)ccc1Oc1nnc(C(F)(F)F)cc1C(=O)Nc1cccc(C(N)=O)c1` [Compound 79], the concentration for half-maximal inhibition (IC50) reads like this: under setting [1], 201 to 500 nM; under setting [2], 201 to 500 nM.

For orientation: IC50 means the midpoint of a concentration-inhibition curve.
